From PMC10058671 (Pharmaceutics, 2023)
Values after ≈ are worked out from the molar mass of the structure shown. Like-named read-outs stand apart in the source and are kept apart here.

Columns and labels:
seasonal influenza A = details: Call-3 cells, dose-dependent manner; cited from earlier work
[1] = cited from earlier work
SARS-CoV-2 [2] = details: Call-3 cells, dose-dependent manner; cited from earlier work
[3] = rodents; cited from earlier work
[4] = dog, in vivo; cited from earlier work
[5] = tested on: SARS-CoV-2 in Huh7.5 cells; set-up: method as in PMID 34755538; details: cited from earlier work
SARS-CoV-2 [6] = tested on: SARS-CoV-2; set-up: method as in PMID 35609344; details: SARS-CoV-2 infected mice; cited from earlier work
[7] = Pharmacokinetic study after daily oral pyronaridine/artesunate in hamsters (noncompartmental analysis of observed blood, lung and trachea concentrations); set-up: species or system golden hamsters; details: for tolerability of the doses (no unscheduled deaths): 180/60 and 360/120 mg/kg pyronaridine/artesunate oral once a day for 3 days
Method: One hundred eight male golden hamsters were obtained from Janvier Lab. (Le Genest-Saint-Isle, France). All hamsters were maintained on a 12-h dark–light cycle at a temperature of 23 ± 3 °C and relative humidity of 55 ± 15%. This study was conducted according to the Guidelines for Ethical Conduct in the Care and Use of Animals and the rules of Good Laboratory Practice and was approved by the Institutional Animal Care and Use Committee (IACUC, protocol number SP2021-14) at Shin Poong Pharm. Co., Ltd. (Seoul, Republic of Korea).
The hamsters (102.01 ± 5.72 g) were divided into two groups: a low-dose group (n = 60) and a high-dose group (n = 48). […] Blood samples (0.5 mL) were drawn from the jugular vein into heparinized tubes at the following times: 0 (predose), 0.08, 0.25, 0.5, 0.75, 1, 2, 4, 8, 12, 24, 47, 48.08, 48.25, 48.5, 48.75, 49, 50, 52, 56, 60, and 72 h during oral administration for 3 days. The blood sampling was conducted 1–3 times per hamster within 72 h, and the tissues were collected after the last blood sampling. The number of animals was four per blood and tissue sampling time point, respectively (each n = 4). The lung and trachea tissues were immediately obtained after sacrificing hamsters, washed in normal saline, and dried with filter papers. The lung and trachea sampling times were as follows: 0.08, 0.25, 0.5, 0.75, 1, 4, 8, 24, 48.08, 48.25, 48.75, 52, and 72 h. Tissues were individually weighed and homogenized with water (lung or trachea tissue: water = 1:4 w/v). The lung and trachea tissue homogenate were stored at −70 °C until sample analysis. For pyronaridine quantification, whole blood samples were stored at −70 °C until sample analysis.
Liquid chromatography was conducted on the Agilent 1290 Infinity II LC System (Agilent Technologies Inc., Santa Clara, CA, USA) coupled to a 6490 Triple Quad Mass Spectrometer (Agilent Technologies Inc., Santa Clara, CA, USA). A Synergi Max-RP column (2.0 × 75 mm, 4 μm particle size, Phenomenex, Torrance, CA, USA) was used at a temperature of 25 °C. The mobile phase consisted of 0.04% TFA (mobile phase A) and methanol:acetonitrile (3:1 v/v, mobile phase B) with a flow rate of 0.2 mL/min. A gradient elution was used for the chromatographic separation of pyronaridine as follows: 0.0–1.5 min, 10% B; 1.5–1.6 min, 10–60% B; 1.6–4.0 min, 60% B; 4.0–4.1 min, 60–10% B; […], 10% B. The multiple reaction monitoring (MRM) mode was set with a positive electrospray ionization mode. The MRM transitions of pyronaridine and amodiaquine (internal standard, IS) were 518.2 > 447.1 and 356.2 > 283.0. The collision energy of pyronaridine and amodiaquine were 17 and 21 eV, and the cell accelerator voltage was 5 V for both compounds.
Chromatographic separation was performed with an Inertsil ODS column (2.1 × 100 mm, 5 µm particle size, GL Sciences, Tokyo, Japan) column at a temperature of 25 ℃. The mobile phase consisted of 10 mM ammonium acetate (mobile phase A) and acetonitrile (mobile phase B) with an isocratic elution (A:B = 10:90, v/v), and a flow rate of 0.2 mL/min. The mass spectrometer was operated on electrospray ionization positive mode.
Fifty μL of hamster blood, lung, or trachea tissue homogenates were added with 10 μL of the IS solution (10 μg/mL of amodiaquine). Added to the mixed sample were 125 μL of 0.5 M sodium phosphate tribasic dodecahydrate buffer (pH adjusted to 10.3 with 85% ortho-phosphoric acid) and 500 μL of ether, vortexed for 5 min and centrifuged at 21,130× g for 5 min. Then, 300 μL of supernatant were transferred to new microtubes and dried under nitrogen steam at room temperature. The dried residues were reconstituted with 100 μL of mobile phase (0.04% TFA:methanol:acetonitrile = 40:45:15, v/v/v) and vortexed for 5 min. After centrifugation at 21,130× g for 5 min, 5 μL of aliquot were injected into the UPLC-MS/MS system.
Then, 50 μL of hamster plasma, lung, or trachea tissue homogenates were added with 10 μL of the IS solution (5 μg/mL of artemisinin).

[8] = tested on: SARS-CoV-2 in Vero E6 cells; set-up: method as in PMID 33075512; details: cited from earlier work
[9] = tested on: SARS-CoV-2 in Calu-3 cells; set-up: method as in PMID 34755538; details: cited from earlier work
SARS-CoV-2 [10] = tested on: SARS-CoV-2; set-up: method as in PMID 32916297; details: in vitro anti-SARS-CoV-2; cited from earlier work
[11] = rat, in vivo; cited from earlier work
SARS-CoV-2 in Vero cells = details: cited from earlier work
[12] = in vivo; cited from earlier work
SARS-CoV-2 [13] = tested on: SARS-CoV-2; set-up: method as in PMID 32786284; details: anti-SARS-CoV-2; cited from earlier work
SARS-CoV-2 [14] = tested on: SARS-CoV-2; set-up: method as in PMID 34272426; details: range in different cell types; cited from earlier work
[15] = male, golden, hamster, in vivo, po, 180 mg/kg
[16] = male, golden, hamster, in vivo, po, 360 mg/kg
[17] = fitted, parent-metabolite model

COc1ccc2nc3cc(Cl)ccc3c(Nc3cc(CN4CCCC4)c(O)c(CN4CCCC4)c3)c2n1 [Pyronaridine, Pyronaridine tetraphosphate]
Klung (lung-to-blood partition coefficient) (fitted): 26.06 | Krest (rest of the body-to-blood partition coefficient) (fitted): 5.25 × 10^−7 | Ktrachea (trachea-to-blood partition coefficient) (fitted): 8.67 | ka (first-order absorption rate constant) (fitted): 0.03 h⁻¹ | klt (lung-to-trachea transfer rate constant) (fitted): 0.92 h⁻¹ | ktl (trachea-to-lung transfer rate constant) (fitted): 1.01 h⁻¹ | CL/F (apparent total clearance) (hamster): 0.21 L/h | growth and viral replication of seasonal influenza A (seasonal influenza A): inhibited the growth and viral replication | blood-to-plasma ratio [1]: 4.9–17.8 | growth and viral replication of SARS-CoV-2 (SARS-CoV-2 [2]): inhibited the growth and viral replication | maximal nonlethal dose [3]: 1500 mg/kg | elimination half-life [4]: 60 h | concentration showing anti-SARS-CoV-2 activity [5]: 103.6 ng/mL | viral load in the lungs (SARS-CoV-2 [6]): significant inhibition of the viral load in the lungs | tolerability of the doses (no unscheduled deaths) [7]: tolerated | Kp at 3 day ([7]; male, golden, hamster, in vivo, lung-to-blood AUC ratio): 51 | Kp at 1 day ([7]; male, golden, hamster, in vivo, lung-to-blood AUC ratio (=AUClung/AUCblood)): 25.5 | AUC at 1 day [7, 15]: 24100 ng·h/mL | AUC at 3 day [7, 15]: 57100 ng·h/mL | Cmax [7, 15]: 2700 ng/mL | AUC at 1 day [7, 16]: 51000 ng·h/mL | AUC at 3 day [7, 16]: 84900 ng·h/mL | Cmax [7, 16]: 4540 ng/mL | Tmax [7, 16]: 120 to 240 min | Kp at 3 day ([7]; male, golden, hamster, in vivo, trachea-to-blood AUC ratio): 16.6 | Kp at 1 day ([7]; male, golden, hamster, in vivo, trachea-to-blood AUC ratio (=AUCtrachea/AUCblood)): 7.17 | EC50 [8]: 0.373 µg/mL (≈ 0.72 µM) | concentration showing anti-SARS-CoV-2 activity [9]: 8.6 ng/mL | EC50 (SARS-CoV-2 [10]): 0.72 µM | EC90 (SARS-CoV-2 [10]): 0.75 µM | elimination half-life [11]: two to four days | EC50 (SARS-CoV-2 in Vero cells; after 24 h of culture): 0.5699 µg/mL (≈ 1.1 µM) | EC50 (SARS-CoV-2 in Vero cells; after 48 h of culture): 1.1397 µg/mL (≈ 2.2 µM)

C[C@H]1[C@H](OC(=O)CCC(=O)O)O[C@@H]2O[C@@]3(C)CC[C@H]4[C@H](C)CC[C@@H]1[C@@]24OO3 [Artesunate, artesunate]
Klung (lung-to-blood partition coefficient) (fitted): 10.33 | Ktrachea (trachea-to-blood partition coefficient) (fitted): 1.48 | ka (first-order absorption rate constant) (fitted): 1.74 h⁻¹ | klt (lung-to-trachea transfer rate constant) (fitted): 0.34 h⁻¹ | ktl (trachea-to-lung transfer rate constant) (fitted): 1.50 h⁻¹ | CL/F (apparent total clearance) (hamster): 2517.70 L/h | growth and viral replication of seasonal influenza A (seasonal influenza A): inhibited the growth and viral replication | growth and viral replication of SARS-CoV-2 (SARS-CoV-2 [2]): inhibited the growth and viral replication | maximal nonlethal dose [3]: 500 mg/kg | tolerability of the doses (no unscheduled deaths) [7]: tolerated | elimination half-life [12]: 19.2 to 31.2 min | time to peak concentrations [12]: less than five minutes | time until concentrations decreased below the quantification limit [12]: 2 h | EC50 (SARS-CoV-2 [13]): 13 µM | EC50 (SARS-CoV-2 [14]): 18.2 to 31.2 µM

C[C@H]1[C@@H](O)O[C@@H]2O[C@@]3(C)CC[C@H]4[C@H](C)CC[C@@H]1[C@@]24OO3 [Dihydroartemisinin, dihydroartemisinin]
Klung,m (lung-to-blood partition coefficient) [17]: 0.34 | Krest,m (rest of the body-to-blood partition coefficient) [17]: 1.21 | Ktrachea,m (trachea-to-blood partition coefficient) [17]: 1.08 | klt,m (lung-to-trachea transfer rate constant) [17]: 0.35 h⁻¹ | ktl,m (trachea-to-lung transfer rate constant) [17]: 6.98 h⁻¹ | CLm/F (apparent total clearance of metabolite) (hamster): 10.33 L/h | blood-to-plasma ratio / partition coefficient (Kb:p, Kb:p,m) [1]: 0.75 | elimination half-life [4]: 0.39 to 0.66 h | elimination half-life [12]: 19.2 to 31.2 min | time to peak concentrations [12]: less than five minutes | EC50 (SARS-CoV-2 [13]): 13.3 µM | elimination half-life [11]: 15 to 61.8 min
